The structures appear in SMILES notation. Read-outs that look alike come from different tables or passages of the source.

VSV activity and Cytotoxicity data for one molecule are collected here from patent publication US4902716A (priority 1984, dated 1990).

One data set has as its system VSV. It counts as cell-based, vesicular stomatitis. The settings on record: Day 5, inhibition of plaque formation.
The test system of a further data set is cells. Kind of data set: Cytotoxicity (zone diameter in the antiviral assay). It is filed as cell-based. The settings on record: Day 5. The method, then:
The following assay method was utilized to illustrate the antiviral effectiveness of the compounds of formulae III and IV: […]
(1) Remove 75 cm^2 culture flasks from incubator (these were plated the previous week).
(3) Wash with 10 ml. PBSA or Puck's Saline.
(5) Wash a second time with 10 mL PBSA or Puck's Saline.
(7) Add 2 ml. trypsin/EDTA. Incubate until cells detach (10-20 min).
(8) Once detached, shake vigorously and immediately add 8 ml. medium and shake again.
(9) Count cells. (To 0.5 ml. cell suspension add 0.1 ml. trypan blue. Wait 5-10 minutes. Count 4 corner squares and middle square of 5×5 array in hemocytometer. Blue cells are dead. Total count per 10 ml. in culture flask=number of live cells×6×10^5).
(10) Maintain cell line by adding 3×10^6 cells to another 75 cm^2 culture flask. Bring to 30 ml. with fresh medium.
(11) For assay, add 1×10^6 cells to each well (6 wells per culture dish). Bring each well to 2 ml. with fresh medium.
(12) Incubate overnight at 37° C.
(2) Add 0.5 of medium containing 200 pfu HSV-I.
(3) Incubate 102 hr with a small amount of shaking.
(4) Add 2 ml. MC-4000 to each well.
(5) Place disks on surface and wash through (1 mg/disc, 0.5 mg/disc, 0.25 mg/disc, etc. for crude extracts).
(6) Incubate 48 hr. (making sure dishes remain level).
(1) Add 2 ml. neutral red medium.
(1) Read wells, e.g. 26 (++) where 26 indicates zone of cytotoxicity as the diameter in mm (12.5 mm to 36 mm) and (++) indicates the inhibition of plaque formation: complete inhibition (+++); a few plaques around the outside of well (++); definite inhibition (+); questionable inhibition (+/-); no inhibition (-); and no conclusion due to complete cytotoxicity.
The following antiviral inhibiting activity results were obtained utilizing the compounds of Formula III and IV at Day 5: […]

In the case of `C=C1C(=O)C=CC(C)(C)[C@@]12C[C@@H](Br)[C@](C)(Cl)C[C@@H]2O` [IV], the VSV activity result in the data set with VSV (100 micrograms) is given as “+”; in the data set on VSV (200 micrograms) it was “++”; in the data set on VSV (400 micrograms), “++”. The results for the Cytotoxicity with cells (100 micrograms), in the data set on cells (200 micrograms) and in the data set on cells (400 micrograms) were 0 mm, 0 mm and 12 mm, respectively.
